For one compound, IC50 results are on record in patent US8278295B2, “Amino-heterocyclic compounds” (Pfizer Inc., priority 2009, dated 2012).

This experiment addresses human recombinant PDE9 enzyme (Homo sapiens, UniProt O76083). Briefly: PDE9 IC50, 96-well assay (Phosphodiesterase SPA). It is filed as biochemical.

Chain of human recombinant PDE9 enzyme (O76083 whole entry): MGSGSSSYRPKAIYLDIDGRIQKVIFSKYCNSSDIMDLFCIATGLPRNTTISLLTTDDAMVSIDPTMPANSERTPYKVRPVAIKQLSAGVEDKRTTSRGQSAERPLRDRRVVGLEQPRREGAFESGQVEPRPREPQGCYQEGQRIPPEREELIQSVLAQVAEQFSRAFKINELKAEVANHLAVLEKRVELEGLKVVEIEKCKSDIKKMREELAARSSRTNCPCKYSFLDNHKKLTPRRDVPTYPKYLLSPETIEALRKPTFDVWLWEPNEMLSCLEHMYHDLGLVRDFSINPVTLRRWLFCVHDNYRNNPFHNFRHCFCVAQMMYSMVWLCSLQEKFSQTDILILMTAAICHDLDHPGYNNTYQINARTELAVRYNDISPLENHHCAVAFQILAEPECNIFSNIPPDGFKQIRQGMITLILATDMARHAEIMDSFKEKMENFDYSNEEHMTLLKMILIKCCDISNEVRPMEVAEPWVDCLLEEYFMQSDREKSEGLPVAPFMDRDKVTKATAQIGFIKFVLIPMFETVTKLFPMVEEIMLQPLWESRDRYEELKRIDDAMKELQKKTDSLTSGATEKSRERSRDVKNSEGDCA
Experimental: PDE9 IC50, 96-well assay: The assay was performed using the Phosphodiesterase Scintillation Proximity (SPA) assay (GE Healthcare Life Sciences). […] The human recombinant PDE9 enzyme was generated in SF-9 cells, the cell pellets were sonicated in buffer (20 mM Tris, 2 mM benzamidine, 1 mM EDTA, 250 mM sucrose, 100 μM PMSF, pH 7.5 with HCl), centrifuged at 40,000×g for 20 min at 4° C. The supernatants were stored at −80° C. […] Test compounds were dissolved in DMSO, diluted in DI H2O and serially diluted in 20% DMSO/80% H2O, for a final concentration of 2% DMSO. For the assay the PDE9 was diluted with assay buffer such that 20% or less of the substrate was hydrolyzed to 5′GMP. Each assay well contained 10 μL of test compound or solvent, 40 μl of [^3H]cGMP and 50 μl of enzyme, background was determined by a high concentration of a PDE inhibitor. The assay was initiated with the addition of the enzyme and carried out at room temperature for 30 min. […] The plates were sealed, vortexed, allowed to set for >300 min, then counted in a Wallac TriLux MicroBeta LSC.

As for `C[C@H](c1nc2c(cnn2C2CCCC2)c(=O)[nH]1)N1CC(Oc2ncccn2)C1` [Example 13, 1-Cyclopentyl-6-{(1R)-1-[3-(pyrimidin-2-yloxy)azetidin-1-yl]ethyl}-1,5-dihydro-4H-pyrazolo[3,4-d]pyrimidin-4-one], the IC50 (commonly the concentration at which inhibition is half-maximal) was found to be 9.49 nM.
